Usually IC50 stands for the midpoint of a concentration-inhibition curve.

Holding throughout (type): biochemical
Test [1] concerns the target MMP-3 catalytic domain (MMP-3CD) (Homo sapiens, UniProt P08254). Kind of test: Inhibition of MMP-3 catalytic domain (thiopeptolide substrate hydrolysis, MES pH 6.0). The text has this:
(§1) The assays measure the amount by which a test compound reduces the hydrolysis of a thiopeptolide substrate catalyzed by a matrix metalloproteinase enzyme. Such assays are described in detail by Ye et al., in Biochemistry, 1992;31(45):11231-11235, which is incorporated herein by reference. One such assay is described below in Biological Method 1.
(§2) Thiopeptolide substrates show virtually no decomposition or hydrolysis at or below neutral pH in the absence of a matrix metalloproteinase enzyme. A typical thiopeptolide substrate commonly utilized for assays is Ac-Pro-Leu-Gly-thioester-Leu-Leu-Gly-OEt. A 100 μL assay mixture will contain 50 mM of N-2-hydroxyethylpiperazine-N′-2-ethanesulfonic acid buffer (“HEPES,” pH 7.0), 10 mM CaCl2, 100 μM thiopeptolide substrate, and 1 mM 5,5′-dithio-bis-(2-nitro-benzoic acid) (DTNB). The thiopeptolide substrate concentration may be varied, for example from 10 to 800 μM to obtain Km and Kcat values. The change in absorbance at 405 nm is monitored on a Thermo Max microplate reader (molecular Devices, Menlo Park, Calif.) at room temperature (22° C.). The calculation of the amount of hydrolysis of the thiopeptolide substrate is based on E412=13600 M^−1 cm^−1 for the DTNB-derived product 3-carboxy-4-nitrothiophenoxide. Assays are carried out with and without matrix metalloproteinase inhibitor compounds, and the amount of hydrolysis is compared for a determination of inhibitory activity of the test compounds.
(§3) Test compounds were evaluated at various concentrations in order to determine their respective IC50 values, the micromolar concentration of compound required to cause a 50% inhibition of catalytic activity of the respective enzyme.
It should be appreciated that the assay buffer used with MMP-3CD was 50 mM N-morpholinoethane sulfonate (“MES”) at pH 6.0 rather than the HEPES buffer at pH 7.0 described above.

Test [2] has as its target T1, MMP-13 catalytic domain (MMP-13CD) (Homo sapiens, UniProt P45452).
T1 construct: use the catalytic domain of the MMP-13 enzyme, namely matrix metalloproteinase-13 catalytic domain (“MMP-13CD”), rather than the corresponding full-length enzyme
Kind of test: Inhibition of MMP-13 catalytic domain (thiopeptolide substrate hydrolysis). The note with it: Biological Table 1; read-out: MMP-13CD IC50.
Source text: as §1
Some of the particular methods described below use the catalytic domain of the MMP-13 enzyme, namely matrix metalloproteinase-13 catalytic domain (“MMP-13CD”), rather than the corresponding full-length enzyme, MMP-13. It has been shown previously by Ye Qi-Zhuang, Hupe D., and Johnson L. (Current Medicinal Chemistry, 1996;3:407-418) that inhibitor activity against a catalytic domain of an MMP is predictive of the inhibitor activity against the respective full-length MMP enzyme.
as §2, §3

Test [3] has as its target T2, MMP-17 catalytic domain (MMP-17CD) (Homo sapiens, UniProt Q9ULZ9).
T2 construct: MMP-3 catalytic domain, MMP-12 catalytic domain, MMP-14 catalytic domain, and MMP-17 catalytic domain
T2 sequence (Q9ULZ9 126-295 limits assumed): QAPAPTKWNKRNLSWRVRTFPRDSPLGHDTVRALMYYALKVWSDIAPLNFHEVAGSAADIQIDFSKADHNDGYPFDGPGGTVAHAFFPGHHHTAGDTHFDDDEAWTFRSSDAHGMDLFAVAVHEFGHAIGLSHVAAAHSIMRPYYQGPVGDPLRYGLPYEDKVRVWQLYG
Kind of test: Inhibition of MMP-17 catalytic domain (thiopeptolide substrate hydrolysis).
Source text: as §1, §2, §3

Test [4] has as its target T3, MMP-12 catalytic domain (MMP-12CD) (Homo sapiens, UniProt P39900).
T3 construct: MMP-3 catalytic domain, MMP-12 catalytic domain, MMP-14 catalytic domain, and MMP-17 catalytic domain
Kind of test: Inhibition of MMP-12 catalytic domain (thiopeptolide substrate hydrolysis).
Source text: as §1, §2, §3
(§4) The test described above for the inhibition of MMP-13 may also be adapted and used to determine the ability of the compounds of Formula I to inhibit the matrix metalloproteases MMP-1, MMP-2, MMP-3, MMP-7, MMP-9, MMP-12 and MMP-14.

Test [5] has as its target MMP-14 catalytic domain (MMP-14CD) (Homo sapiens, UniProt P50281). Kind of test: Inhibition of MMP-14 catalytic domain (thiopeptolide substrate hydrolysis).
Source text: as §1, §2, §3, §4

T3 sequence (P39900 106-263 limits assumed, species assumed): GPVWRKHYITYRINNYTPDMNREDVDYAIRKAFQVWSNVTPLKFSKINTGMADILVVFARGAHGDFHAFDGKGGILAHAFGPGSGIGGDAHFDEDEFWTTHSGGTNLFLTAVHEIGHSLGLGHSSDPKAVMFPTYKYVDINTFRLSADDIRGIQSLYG
MMP-3 catalytic domain (MMP-3CD), sequence (P08254 100-272 limits assumed, species assumed): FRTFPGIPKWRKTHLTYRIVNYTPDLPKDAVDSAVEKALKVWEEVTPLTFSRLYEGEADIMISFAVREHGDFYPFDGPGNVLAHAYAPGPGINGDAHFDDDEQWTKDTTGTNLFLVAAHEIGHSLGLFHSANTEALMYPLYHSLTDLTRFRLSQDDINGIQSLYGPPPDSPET

On to `O=C(NCCN1CCOCC1)c1ccc(Cn2ccc3ccc(C#CCc4ccccc4)cc3c2=O)cc1` [Example 21, N-(2-morpholin-4-yl-ethyl)-4-[1-oxo-7-(3-phenylprop-1-ynyl)-1H-isoquinolin-2-ylmethyl]-benzamide], for which the IC50 in test [1] was 22 µM; in test [2] it was 0.067 µM; in test [3] it was above 3 µM; in test [4] it was above 100 µM; in test [5], above 100 µM.

Consider `O=C(O)c1ccc(Cn2ccc3ccc(C(=O)NCc4ccc(F)cc4)cc3c2=O)cc1` [Example 31, 4-[7-(4-fluoro-benzylcarbamoyl)-1-oxo-1H-isoquinolin-2-ylmethyl]benzoic Acid], for which the IC50 was above 100 µM in test [1]; 0.03 µM in test [2]; above 100 µM in test [3]; above 100 µM in test [4]; above 100 µM in test [5].

On to `O=C(NCc1ccc(-c2csnn2)cc1)c1ccc2ccn(Cc3ccc(-c4nn[nH]n4)cc3)c(=O)c2c1` [Example 64, 1-oxo-2-[4-(2H-tetrazol-5-yl)benzyl]-1,2-dihydroisoquinoline-7-carboxylic Acid 4-[1,2,3]thiadiazol-4-yl-benzylamide], for which the IC50 is 16 µM in test [1], 0.068 µM in test [2] and above 10 µM in test [3].

As to `COc1cc(CNC(=O)c2ccc3ccn(Cc4ccc(C#N)cc4)c(=O)c3c2)ccn1` [Example 35, 2-(4-cyanobenzyl)-1-oxo-1,2-dihydro-isoquinoline-7-carboxylic Acid (2-methoxypyridin-4-ylmethyl)amide], the IC50 in test [1] was 7 µM; in test [2], 0.4 µM; in test [4], above 10 µM; in test [5], 81 µM.

Consider `CSc1ccc(CNC(=O)c2ccc3ccn(Cc4ccc(C#N)cc4)c(=O)c3c2)cc1` [Example 40, 2-(4-cyanobenzyl)-1-oxo-1,2-dihydro-isoquinoline-7-carboxylic Acid 4-methylsulfanyl-benzylamide], for which the IC50 in test [1] was 6.2 µM; in test [2] it was 0.43 µM; in test [3], above 10 µM; in test [4] it was 6.8 µM; in test [5], above 10 µM.

For the molecule `COc1cccc(CNC(=O)c2ccc3ccn(Cc4ccc(S(C)(=O)=O)cc4)c(=O)c3c2)c1` [Example 53, 2-(4-methane-sulfonylbenzyl)-1-oxo-1,2-dihydro-isoquinoline-7-carboxylic Acid 3-methoxy-benzylamide], the IC50 in test [1] was above 30 µM; in test [2] it was 0.21 µM; in test [3] it was above 100 µM; in test [4] it was 61 µM; in test [5], above 100 µM.

As to `COc1ccc(CNC(=O)c2ccc3ccn(Cc4ccc(-c5nn[nH]n5)cc4)c(=O)c3c2)cc1` [Example 58, 1-oxo-2-[4-(2H-tetrazol-5-yl)benzyl]-1,2-dihydroisoquinoline-7-carboxylic Acid 4-methoxy-benzylamide], the 50% inhibitory concentration (IC50) was 27 µM in test [1]; 0.017 µM in test [2]; 11 µM in test [3]; 56 µM in test [4]; above 100 µM in test [5].

Turning to `COc1cccc(CNC(=O)c2ccc3ccn(Cc4ccc(F)c(F)c4)c(=O)c3c2)c1` [Example 24], the IC50 in test [1] was above 30 µM; in test [2], 0.093 µM; in test [3], above 30 µM; in test [4], 14 µM; in test [5] it was 0.093 µM.

Regarding `O=C(NN1CCCCC1)c1ccc(Cn2ccc3ccc(C#CCc4ccccc4)cc3c2=O)cc1` [Example 20, 4-[1-oxo-7-(3-phenylprop-1-ynyl)-1H-isoquinolin-2-ylmethyl]-N-piperidin-1-yl-benzamide], the IC50 in test [1] is 8 µM; in test [2] it was 0.039 µM; in test [3] it was 2.3 µM; in test [4], above 30 µM; in test [5] it was above 30 µM.

`N#Cc1ccc(Cn2ccc3ccc(C#CCc4ccccc4)cc3c2=O)cc1` [Example 19]: the IC50 in test [1] was 5 µM; in test [2] it was 0.049 µM; in test [3], above 100 µM; in test [4], above 100 µM; in test [5], 28 µM.

As for `O=C(NCc1ccncc1)c1ccc2ccn(Cc3ccc(-c4nn[nH]n4)cc3)c(=O)c2c1` [Example 57, 1-oxo-2-[4-(2H-tetrazol-5-yl)benzyl]-1,2-dihydroisoquinoline-7-carboxylic Acid (pyridin-4-ylmethyl)amide], the concentration for half-maximal inhibition (IC50) in test [1] was above 100 µM; in test [2], 0.04 µM; in test [3] it was above 100 µM; in test [4] it was above 30 µM; in test [5], above 100 µM.

For `COc1cc(CNC(=O)c2ccc3ccn(Cc4ccc(F)c(F)c4)c(=O)c3c2)ccn1` [Example 23, 2-(3,4-difluorobenzyl)-1-oxo-1,2-dihydroisoquinoline-7-carboxylic acid (2-methoxypyridin-4-ylmethyl)amide], the IC50 in test [1] was above 100 µM; in test [2] it was 0.29 µM; in test [3] it was above 10 µM; in test [4] it was above 100 µM; in test [5] it was above 100 µM.

Take `COc1ccc(CNC(=O)c2ccc3ccn(Cc4ccc(F)c(F)c4)c(=O)c3c2)cc1` [Example 25]: the IC50 in test [1] was 60 µM; in test [2], 0.33 µM; in test [3], above 30 µM; in test [4], above 30 µM; in test [5], above 100 µM.

Turning to `COc1cc(CNC(=O)c2ccc3ccn(Cc4ccc(C(=O)O)cc4)c(=O)c3c2)ccc1O` [Example 32], the IC50 is above 100 µM in test [1]; 0.15 µM in test [2]; above 100 µM in test [3]; above 100 µM in test [4]; above 100 µM in test [5].

As to `COc1cccc(CNC(=O)c2ccc3ccn(Cc4ccc(-c5nn[nH]n5)cc4)c(=O)c3c2)c1` [Example 59, 1-oxo-2-[4-(2H-tetrazol-5-yl)benzyl]-1,2-dihydroisoquinoline-7-carboxylic Acid 3-methoxy-benzylamide], the IC50 in test [1] is above 10 µM; in test [2], 0.0029 µM; in test [3], above 30 µM; in test [4], above 10 µM; in test [5], above 30 µM.

In the case of `COc1ccc(CNC(=O)c2ccc3ccn(Cc4ccc(C#N)cc4)c(=O)c3c2)cc1` [Example 36, 2-(4-cyanobenzyl)-1-oxo-1,2-dihydro-isoquinoline-7-carboxylic Acid 4-methoxybenzylamide], the IC50 in test [1] was 19 µM; in test [2] it was 0.24 µM; in test [4], 24 µM; in test [5] it was above 30 µM.

Take `COc1ccc(CNC(=O)c2ccc3ccn(Cc4ccc(S(C)(=O)=O)cc4)c(=O)c3c2)cc1` [Example 52, 2-(4-methane-sulfonylbenzyl)-1-oxo-1,2-dihydro-isoquinoline-7-carboxylic Acid 4-methoxy-benzylamide]: the IC50 is above 30 µM in test [1]; 0.85 µM in test [2]; above 30 µM in test [3]; above 30 µM in test [4]; above 30 µM in test [5].

For `O=C(O)c1ccc(Cn2ccc3ccc(C(=O)NCc4cccnc4)cc3c2=O)cc1` [Example 30, 4-{1-oxo-7-[(pyridin-3-ylmethyl)carbamoyl]-1H-isoquinolin-2-ylmethyl}benzoic Acid], the IC50 was above 100 µM in test [1]; 0.4 µM in test [2]; above 100 µM in test [3]; above 100 µM in test [4]; above 100 µM in test [5].

Regarding `COc1cccc(CNC(=O)c2ccc3ccn(Cc4ccc(C#N)cc4)c(=O)c3c2)c1` [Example 37, 2-(4-cyanobenzyl)-1-oxo-1,2-dihydro-isoquinoline-7-carboxylic Acid 3-methoxybenzylamide], the concentration for half-maximal inhibition (IC50) in test [1] was 13 µM; in test [2], 0.095 µM; in test [4] it was 13 µM; in test [5], above 30 µM.

Values taken from patent US20040044000A1, “Isoquinoline derivatives as matrix metalloproteinase inhibitors” (priority 2002, published 2004).
